Literature values in patent US20210353570A1, “Flutamide Microsphere-Based Arterial Embolization for Treating Prostate Disorders” (Biovena Science, LLC, priority 2018, published 2021).

Legend:
[1] = not given; remark: listed apart in the source

- solubility: low solubility
- bioavailability ([1]; after oral administration): 49%
- half-life ([1]; in vivo): 5 to 6 h
SMILES: CC(C)C(=O)Nc1ccc([N+](=O)[O-])c(C(F)(F)F)c1 [Flutamide, 4′-nitro-3′-trifluoromethyl-isobutyranilide]
